The values below come from patent US7968526B2, “Antisense oligonucleotides directed to ribonucleotide reductase R2 and uses thereof in the treatment of cancer” (Lorus Therapeutics Inc., priority 2003, dated 2011).

“Also recorded” adds a separate entry of the source.

Data set [1] has as its system PC-3 human prostatic cancer cells. The experiment in a line: PC-3 prostatic tumour xenograft in SCID mice, combination with mitoxantrone (1.4). To be noted: PC-3, SCID mice; SEQ ID NO:1 10 mg/kg i.v. every other day 18 times; mitoxantrone 2 mg/kg i.v. once. Type of data set: in vivo, human cells in mice.
Experimental: After 52 days the mice were sacrificed and the tumours weighed. […] In both experiments, PC-3 human prostatic cancer cells (1×10^7 cells in 100 μl of PBS) were subcutaneously injected into the right flank of 6-7 weeks old male SCID mice. After the size of tumour reached an approximate volume of 50 mm^3, 14 days post tumour cell injection, SEQ ID NO: 1 was administered by bolus infusion into the tail vein every other day at 10 mg/kg 18 times (FIG. 4A) or 17 times (FIG. 4B), respectively. Control animals received saline alone for the same period. Antitumour effect of SEQ ID NO:1 was further compared to that of mitoxantrone (novantrone) alone or in combination. Mitoxantrone was administered intravenously once at the beginning of the treatments at a dose of 2 mg/kg (FIG. 4A) or once a week for four weeks at a reduced dose of 0.8 mg/kg (FIG. 4B). All treatments were stopped at day 50 (FIG. 4A) or 48 (FIG. 4B), respectively. A day after the last treatment, tumours were excised from the animals and their weights were measured. […] In both experiments, DU145 human prostatic cancer cells (1×10^7 cells in 100 μl of PBS) were subcutaneously injected into the right flank of 6-7 weeks old male SCID mice. After the size of tumour reached an approximate volume of 50 mm^3, 13 (FIG. 5A) or 11 (FIG. 5B) days post tumour cell injection, SEQ ID NO:1 was administered by bolus infusion into the tail vein every other day at 10 mg/kg 15 times (FIG. 5A) or 14 times (FIG. 5B), respectively. Control animals received saline alone for the same period. Antitumour effect of SEQ ID NO:1 was further compared to that of mitoxantrone (novantrone) alone or in combination. Mitoxantrone was administered intravenously once at the beginning of the treatments at a dose of 2 mg/kg (FIG. 5A) or once a week for four weeks at a reduced dose of 0.8 mg/kg (FIG. 5B). All treatments were stopped at day 42 (FIG. 5A) or 38 (FIG. 5B), respectively. A day after the last treatment, tumours were excised from the animals and their weights were measured.
The subject of data set [2] is LS513 multi-drug resistant colon carcinoma cells. The experiment in a line: LS513 multi-drug resistant colon carcinoma xenograft in SCID mice, combination with CPT-11 (2.8). Type of data set: in vivo, human cells in mice. As to conditions: SEQ ID NO:1 10 mg/kg i.v. every other day, CPT-11 20 mg/kg/day i.p. 5 days. Here is the method: BxPC-3 is a gemcitabine resistant call line. […] Gemcitabine was administered intravenously every three days at a dose of 100 mg/kg. Antitumour activities were estimated by the inhibition of tumour volume, which was measured with caliper. Each point represents mean tumour volume calculated from 10 animals per experimental group. […] Hela S3 is a hydroxyurea resistant cell line. […] Hydroxyurea was administered intraperitoneally every day at a dose of 250 mg/kg for 10 days. Cisplatin was administered intravenously once a week for three weeks at a dose of 4 mg/kg. Antitumour activities were estimated by the inhibition of tumour volume, which was measured with caliper. Each point represents mean tumour volume calculated from 10 animals per experimental group. […] Cisplatin was administered intravenously once a week for three weeks at a dose of 4 mg/kg. Taxol was administered intravenously once a week for three weeks at a dose of 10 mg/kg. Antitumour activities were estimated by the inhibition of tumour volume, which was measured with caliper. Each point represents mean tumour volume calculated from 10 animals per experimental group. […] Taxol was administered i.p. once a week at a dose of 10 mg/kg. Antitumour activities were estimated by the inhibition of tumour volume (FIG. 12A), which was measured with calipers. Each point represents mean tumour volume calculated from 10 animals per experimental group. […] Antitumour activities were estimated by the inhibition of tumour volume, which was measured with caliper. Each point represents mean tumour volume calculated from 9-10 animals per experimental group. […] Antitumour activities were estimated by the inhibition of tumour volume, which was measured with caliper. Each point represents mean tumour volume calculated from 10 animals per experimental group. […] Anti-tumour activity was estimated by the inhibition of tumour volume, which was measured with caliper. Each point represents mean tumour volume calculated from 10 animals per experimental group. […] Antitumour activities were estimated by the inhibition of tumour volume, which was measured with caliper. […]

In data set [3] the test system is C8161 human melanoma cells. The experiment in a line: Experimental metastasis of C8161 cells treated ex vivo, lung nodules in CD-1 nude mice (4.2). Also on record: species or system human cells in mice. Here is the method:
• 4.1 Experimental metastasis of mouse fibrosarcoma (R3) cells treated with different antisense oligonucleotides in a syngenetic model was estimated as follows. Aliquots of R3 cell suspension were seeded into 100 mm tissue culture dishes at a density of 2×10^6 and incubated overnight at 37° C. in α-MEM medium supplemented with 10% FBS. Cells were washed once in 10 ml of PBS and treated with 0.2 μM of SEQ ID NO: 1 in the presence of cationic lipid (Lipofectin reagent, final concentration, 10 μg/ml, Gibco BRL) for 4 hr. Cells were treated with either saline alone (C) or lipofectin alone (RE) as controls. Oligonucleotide was removed by washing the cells once with PBS and the cells were trypsinized. Cells were then collected by centrifugation, and approximately 1×10^5 cells suspended in 0.2 ml of PBS were injected into the tail veins of 10 week-old C3H female mice. Estimates of the number of lung tumours were made 20 days later, after excised lungs from individual mice were stained with picric acid dye solution (75% picric acid, 20% formaldehyde, 5% glacial acetic acid). Bars represent mean number of tumour nodules in lungs obtained from 4 to 5 animals per experimental group. […] Aliquots of C8161 cell suspension were seeded into 100 mm tissue culture dishes at a density of 2×10^6 and incubated overnight at 37° C. in α-MEM medium supplemented with 10% FBS. […]

Turning to “5′-GGCTAAATCGCTCCACCAAG-3′ (all phosphorothioate, sugars by position and methylation of C not given here) [SEQ ID NO: 1, fully phosphorothioated antisense oligonucleotide that hybridizes to the coding region of R2 mRNA]”, the “Antitumour effect (tumour weight, FIG. 4A)” value in data set [1] is “significant delay of tumour growth compared to saline control”. Besides, the “Tumour weight as % of saline control” value in data set [2] (LS513 (colon) multi-drug resistant (CPT-11 sensitive), SCID) was 49%. Besides, in data set [2] (LS513, SCID mice), the “Antitumour effect (FIG. 16)” value is “significant delay of tumour growth compared to saline control; also recorded: as effective as CPT-11”. In addition, in data set [3] (C8161 cells treated with 0.2 μM + Lipofectin for 4 hr before i.v. injection into CD-1 nude mice), the “Formation of lung colonies / nodules” value is “significantly reduced the formation of lung colonies; also recorded: significantly reduces the extent of lung nodule formation”. Also, the “Decrease in the number of tumour metastases to lungs” value in data set [3] (Human Melanoma (ex vivo and in vivo)) is “Decrease by approximately 95% in the number”.
